According to ChEMBL document CHEMBL5620384, “6-Regioisomeric 5,8-quinolinediones as potent CDC25 inhibitors against colorectal cancers” (Eur J Med Chem, 2023):
Activity calls are given as the source filed them. No cut-off for these calls is given here.

Key:
U-87 MG = assay: Cytotoxicity against human U-87 MG cells assessed as cell survival measured at 2 uM after 72 hrs by MTS assay relative to control; format: functional, U-87MG ATCC; details: read-out: Activity
DLD-1 [1] = assay: Cytotoxicity against human DLD-1 cells assessed as cell survival measured at 2 uM after 72 hrs by MTS assay relative to control; format: functional; details: read-out: Activity
MDA-MB-231 [2] = assay: Cytotoxicity against human MDA-MB-231 cells assessed as growth inhibition after 72 hrs by MTS assay; format: functional, cell-based; details: MDA-MB-231, 72 h
DLD-1 [3] = assay: Cytotoxicity against human DLD1 cells assessed as growth inhibition after 72 hrs by MTS assay; format: functional, cell-based; details: DLD-1, 72 h
MCF7 = assay: Cytotoxicity against human MCF7 cells assessed as cell survival measured at 2 uM after 72 hrs by MTS assay relative to control; format: functional; details: read-out: Activity
MDA-MB-231 [4] = assay: Cytotoxicity against human MDA-MB-231 cells assessed as cell survival measured at 2 uM after 72 hrs by MTS assay relative to control; format: functional; details: read-out: Activity
HCT-116 [5] = assay: Cytotoxicity against human HCT-116 cells assessed as cell survival measured at 2 uM after 72 hrs by MTS assay relative to control; format: functional; details: read-out: Activity
SW480 = assay: Cytotoxicity against human SW480 cells assessed as cell survival measured at 2 uM after 72 hrs by MTS assay relative to control; format: functional; details: read-out: Activity
HCT-116 [6] = assay: Induction of apoptosis in human HCT-116 cells assessed as reduction in number of cells at S phase at 1 uM measured after 72 hrs by flow cytometry; format: functional, cell-based
HCT-116 [7] = assay: Effect on cell cycle progression in thymidine synchronized human HCT-116 cells assessed as increase in cyclin B1 phosphorylation in presence of 0.2 uM of colchicine at 2 uM by Western blot analysis; format: functional, cell-based
DLD-1 [8] = assay: Induction of cell cycle arrest in human DLD-1 cells assessed as reduced progression of S phase (T8) at 2 uM measured upto 24 hrs by flow cytometry; format: functional, cell-based
HCT-116 [9] = assay: Induction of apoptosis in human HCT-116 cells assessed as reduction in number of cells at G1 phase at 1 uM measured after 72 hrs by flow cytometry; format: functional, cell-based
HCT-116 [10] = assay: Effect on cell cycle progression in thymidine synchronized human HCT-116 cells assessed as increase in histone H3 phosphorylation in presence of 0.2 uM of colchicine at 2 uM by Western blot analysis; format: functional, cell-based
HCT-116 [11] = assay: Induction of apoptosis in human HCT-116 cells assessed as reduction in number of cells at G2/M phase at 1 uM measured after 72 hrs by flow cytometry; format: functional, cell-based
HCT-116 [12] = assay: Effect on cell cycle progression in thymidine synchronized human HCT-116 cells assessed as prevention of cells entering from mitosis in presence of colchicine at 2 uM by Western blot analysis; format: functional, cell-based
DLD-1 [13] = assay: Induction of cell cycle arrest in human DLD-1 cells assessed as reduced progression of G2/M phase (T12) at 2 uM measured upto 24 hrs by flow cytometry; format: functional, cell-based
HCT-116 [14] = assay: Effect on cell cycle progression in thymidine synchronized human HCT-116 cells assessed as increase in MPM2 phosphorylation in presence of 0.2 uM of colchicine at 2 uM by Western blot analysis; format: functional, cell-based
HCT-116 [15] = assay: Reduction in mitotic exit in human HCT-116 cells at 2 uM measured upto 24 hrs by flow cytometry; format: functional, cell-based

Compound	viability at 2 µM (U-87 MG) [%]	viability at 2 µM (DLD-1 [1]) [%]	IC50 (MDA-MB-231 [2]) [nM]	IC50 (DLD-1 [3]) [nM]	viability at 2 µM (MCF7) [%]	viability at 2 µM (MDA-MB-231 [4]) [%]	viability at 2 µM (HCT-116 [5]) [%]	viability at 2 µM (SW480) [%]	Activity (HCT-116 [6])	Activity (HCT-116 [7])	Activity (DLD-1 [8])	Activity (HCT-116 [9])	Activity (HCT-116 [10])	Activity (HCT-116 [11])	Activity (HCT-116 [12])	Activity (DLD-1 [13])	Activity (HCT-116 [14])	Activity (HCT-116 [15])
O=C1C(NCCCCN2CCOCC2)=C(Cl)C(=O)c2ncccc21	105	42.2	680	1700	92.8	81.8	4.18	–	–	–	–	–	–	–	–	–	–	–
O=C1C(Cl)=C(NCCN2CCOCC2)C(=O)c2ccccc21	99	97.6	–	–	103	89.8	90.1	100	–	–	–	–	–	–	–	–	–	–
O=C1C(Cl)=C(NCCN2CCOCC2)C(=O)c2cc(Cl)ccc21	98.2	39.3	–	–	94	91.3	86.5	105	–	–	–	–	–	–	–	–	–	–
O=C1C(NCCN2CCOCC2)=C(Cl)C(=O)c2c1cccc2[N+](=O)[O-]	84.6	59.9	–	–	88.9	99.3	86.3	89.3	–	–	–	–	–	–	–	–	–	–
O=C1C(Cl)=C(NCCN2CCOCC2)C(=O)c2c1cccc2[N+](=O)[O-]	105	93.2	–	–	109	98.2	100	97.8	–	–	–	–	–	–	–	–	–	–
O=C1C(Cl)=C(NCCCN2CCOCC2)C(=O)c2ncccc21	76.8	67.7	–	–	95.1	87.8	56.3	105	–	–	–	–	–	–	–	–	–	–
O=C1C(Cl)=C(NCCN2CCOCC2)C(=O)c2ncccc21	82	82	> 2000	> 2000	79.6	94.4	61.8	93.9	inactive	Active	Active	inactive	Active	inactive	Active	Active	Active	Active
O=C1C(Cl)=C(NCCN2CCOCC2)C(=O)c2ccc(Br)cc21	91.6	75.6	–	–	100	85.4	89.3	105	–	–	–	–	–	–	–	–	–	–
O=C1C(Cl)=C(NCCCCCN2CCOCC2)C(=O)c2ncccc21	79.6	78.9	–	–	84.7	85.9	59.7	98.1	–	–	–	–	–	–	–	–	–	–
O=C1C(NCCCCCN2CCOCC2)=C(Cl)C(=O)c2ncccc21	49.8	30.5	1190	1940	73.9	83.4	13.7	31	–	–	–	–	–	–	–	–	–	–
O=C1C(Cl)=C(NCCN2CCOCC2)C(=O)c2ccc(Cl)cc21	103	91.5	–	–	101	95.9	93	106	–	–	–	–	–	–	–	–	–	–
